Reference: patent publication US8445689B2, “Pesticides” (Dow AgroSciences, LLC., priority 2008, dated 2013)
Read-outs that look alike come from different tables or passages of the source.

Columns and labels:
[1] = test system: Green Peach Aphid (Myzus persicae); test: Insecticidal test for green peach aphid in foliar spray assay on cabbage; type: in vivo; details: 72 h, read-out: Rating against green peach aphid on cabbage (foliar spray)
Description: Compounds 1-67 were tested against green peach aphid using procedures described hereinafter.
Insecticidal Test for Green Peach Aphid (Myzus persicae) in Foliar Spray Assay
Cabbage seedlings grown in 3-inch pots, with 2-3 small (3-5 cm) true leaves, were used as test substrate. The seedlings were infested with 20-50 green peach aphids (wingless adult and nymph) 1-2 d prior to chemical application. Four seedlings were used for each treatment. Compounds (2 mg) were dissolved in 2 mL of acetone-methanol (1:1) solvent, forming stock solutions of 1000 ppm. The stock solutions were diluted 5× with 0.025% Tween 20 in H2O to obtain a solution at 200 ppm. A hand-held Devilbiss aspirator sprayer was used for spraying a solution to both sides of cabbage leaves until runoff. Reference plants (solvent check) were sprayed with the diluent only. Treated plants were held in a holding room for 3 d at approximately 23° C. and 40% RH prior to grading. Evaluation was conducted by counting the number of live aphids per plant under a microscope. Insecticidal activity was measured by using Abbott's correction formula: Corrected % Control=100*(X−Y)/X • where X=No. of live aphids on solvent check plants • Y=No. of live aphids on treated plants

[2] = 200 ppm foliar spray on cabbage seedlings, graded after 3 d, corrected % control (Abbott)

CC(c1ccc(C(F)(F)F)nc1)S(C)(=O)=NC(=S)NC1CC1 (stereo not shown) [Compound 15]
pest or weed control at 200 ppm [1, 2]: 80 to 100%
melting point: 154 to 156 °C

CS(=O)(Cc1ccc(Cl)nc1)=NC(=S)NC(=O)OCC1c2ccccc2-c2ccccc21 (stereo not shown) [Compound 30, 9H-Fluoren-9-ylmethyl{[[(6-chloropyridin-3-yl)methyl](methyl)oxido-λ^4-sulfanylidene]amino}carbonothioylcarbamate]
pest or weed control at 200 ppm ([1]; foliar): < 80%
melting point: 98 to 101 °C

CC(c1ccc(C(F)(F)F)nc1)S(C)(=O)=NC(N)=S (stereo not shown) [Compound 22, N-(methyl(oxido){1-[6-(trifluoromethyl)pyridin-3-yl]ethyl}-λ^4-sulfanylidene)thiourea]
pest or weed control at 200 ppm [1, 2]: 80 to 100%
melting point: 145 to 147 °C

CC(C)NC(=S)N=S(C)(=O)C(C)c1ccc(C(F)(F)F)nc1 (stereo not shown) [Compound 14]
pest or weed control at 200 ppm [1, 2]: 80 to 100%
melting point: 153 to 155 °C

COC(=O)CCC(=O)NC(=S)N=S(C)(=O)C(C)c1ccc(C(F)(F)F)nc1 (stereo not shown) [Compound 37, methyl 4-({[(methyl(oxido){1-[6-(trifluoromethyl)pyridin-3-yl]ethyl}-λ^4-sulfanylidene)amino]carbonothioyl}amino)-4-oxobutanoate]
pest or weed control at 200 ppm [1, 2]: 80 to 100%
melting point: 131 to 133 °C

NC(=S)N=S1(=O)CCCC1c1ccc(Cl)nc1 (stereo not shown) [Compound 36, N-[2-(6-chloropyridin-3-yl)-1-oxidotetrahydro-1H-1λ^4-thien-1-ylidene]thiourea]
pest or weed control at 200 ppm [1, 2]: 80 to 100%
melting point: 168 to 172 °C

CS(=O)(Cc1ccc(Cl)nc1)=N/C(N)=N/O (stereo not shown) [Compound 39, N-[[(6-chloropyridin-3-yl)methyl](methyl)oxido-λ^4-sulfanylidene]-N″-hydroxyguanidine]
pest or weed control at 200 ppm [1, 2]: 80 to 100%
melting point: 156 to 158 °C

COc1ccc(NC(=S)N=S(C)(=O)C(C)c2ccc(C(F)(F)F)nc2)cc1 (stereo not shown) [Compound 5]
pest or weed control at 200 ppm [1, 2]: < 80%
melting point: 167 to 169 °C

CC(c1ccc(C(F)(F)F)cc1)S(C)(=O)=NC(=S)NC(=O)OCC1c2ccccc2-c2ccccc21 (stereo not shown) [Compound 34, 9H-Fluoren-9-ylmethyl[(methyl(oxido){1-[4-(trifluoromethyl)phenyl]-ethyl}-λ^4-sulfanylidene)amino]carbonothioylcarbamate]
pest or weed control at 200 ppm ([1]; foliar): < 80%
melting point: 86 to 93 °C

CS(=O)(Cc1ccc(Cl)nc1)=NC(N)=S (stereo not shown) [Compound 31, N-[[(6-chloropyridin-3-yl)methyl](methyl)oxido-λ^4-sulfanylidene]thiourea]
pest or weed control at 200 ppm [1, 2]: 80 to 100%
melting point: 155 to 158 °C

Cc1ccc(C(C)S(C)(=O)=NC(N)=S)cn1 (stereo not shown) [Compound 33, N-{methyl[1-(6-methylpyridin-3-yl)ethyl]oxido-λ^4-sulfanylidene}-thiourea]
pest or weed control at 200 ppm [1, 2]: 80 to 100%
melting point: 137 to 140 °C

CS(=O)(Cc1ccc(C(F)(F)F)nc1)=NC(=S)NC(=O)OCC1c2ccccc2-c2ccccc21 (stereo not shown) [Compound 28, 9H-Fluoren-9-ylmethyl[(methyl(oxido){[6-(trifluoromethyl)pyridin-3-yl]methyl}-λ^4-sulfanylidene)amino]carbonothioylcarbamate]
pest or weed control at 200 ppm ([1]; foliar): < 80%
melting point: 92 to 97 °C

CC(c1ccc(C(F)(F)F)nc1)S(C)(=O)=NC(=S)NC1CCCCC1 (stereo not shown) [Compound 7]
pest or weed control at 200 ppm [1, 2]: 80 to 100%
melting point: 170 to 172 °C

CC(c1ccc(C(F)(F)F)nc1)S(C)(=O)=NC(=S)NC(=O)OCC1c2ccccc2-c2ccccc21 (stereo not shown) [Compound 9]
pest or weed control at 200 ppm ([1]; foliar): 80 to 100%
melting point: 105 to 107 °C
